According to ChEMBL document CHEMBL3832056, “DailyMed|setid=5ad109ec-1fff-498c-bc91-e2e5481122bc | RAMIPRIL- ramipril capsule|Lake Erie Medical DBA Quality Care Products LLC”:

How the values were obtained:
Homo sapiens [1] = test: Pharmacokinetic parameters for Ramipril, and its active metabolite Ramiprilat evaluated after oral administration of Ramipril.; assay type: ADME, organism-based; conditions: in vivo, dosed compound id 51, dosed compound name RAMIPRIL, regimen Single dose; for F: at 5 mg
Homo sapiens [2] = test: Half-life of Ramiprilat, active metabolite of Ramipril, evaluated after oral administration of multiple doses of 5 mg Ramipril.; assay type: ADME, organism-based; conditions: in vivo, dose 5 to 10 mg, dosed compound id 51, dosed compound name RAMIPRIL, regimen Multiple dose, tissue Plasma

Row | SMILES | F (Homo sapiens [1]; tissue Plasma) [%] | Tmax (Homo sapiens [1]; tissue Plasma) [h] | t1/2 (Homo sapiens [2]) [h] | Excretion (Homo sapiens [1]; tissue Feces) [%] | Absorption (Homo sapiens [1]; tissue Plasma) [%] | Excretion (Homo sapiens [1]; tissue Urine) [%]
1 | C[C@H](N[C@@H](CCc1ccccc1)C(=O)O)C(=O)N1[C@H](C(=O)O)C[C@@H]2CCC[C@@H]21 [RAMIPRILAT] | 44 | 2 to 4 | 13 to 17 |  |  | 
2 | CCOC(=O)[C@H](CCc1ccccc1)N[C@@H](C)C(=O)N1[C@H](C(=O)O)C[C@@H]2CCC[C@@H]21 [RAMIPRIL] | 28 | 1 |  | 40 | 50 to 60 | 60
